Our source for the IC50 values is ChEMBL document CHEMBL3638462, “Pyridine and pyrimidine derivatives as phosphodiesterase 10 inhibitors” (2014).

Chain of cAMP and cAMP-inhibited cGMP 3',5'-cyclic phosphodiesterase 10A (Q9Y233 whole entry): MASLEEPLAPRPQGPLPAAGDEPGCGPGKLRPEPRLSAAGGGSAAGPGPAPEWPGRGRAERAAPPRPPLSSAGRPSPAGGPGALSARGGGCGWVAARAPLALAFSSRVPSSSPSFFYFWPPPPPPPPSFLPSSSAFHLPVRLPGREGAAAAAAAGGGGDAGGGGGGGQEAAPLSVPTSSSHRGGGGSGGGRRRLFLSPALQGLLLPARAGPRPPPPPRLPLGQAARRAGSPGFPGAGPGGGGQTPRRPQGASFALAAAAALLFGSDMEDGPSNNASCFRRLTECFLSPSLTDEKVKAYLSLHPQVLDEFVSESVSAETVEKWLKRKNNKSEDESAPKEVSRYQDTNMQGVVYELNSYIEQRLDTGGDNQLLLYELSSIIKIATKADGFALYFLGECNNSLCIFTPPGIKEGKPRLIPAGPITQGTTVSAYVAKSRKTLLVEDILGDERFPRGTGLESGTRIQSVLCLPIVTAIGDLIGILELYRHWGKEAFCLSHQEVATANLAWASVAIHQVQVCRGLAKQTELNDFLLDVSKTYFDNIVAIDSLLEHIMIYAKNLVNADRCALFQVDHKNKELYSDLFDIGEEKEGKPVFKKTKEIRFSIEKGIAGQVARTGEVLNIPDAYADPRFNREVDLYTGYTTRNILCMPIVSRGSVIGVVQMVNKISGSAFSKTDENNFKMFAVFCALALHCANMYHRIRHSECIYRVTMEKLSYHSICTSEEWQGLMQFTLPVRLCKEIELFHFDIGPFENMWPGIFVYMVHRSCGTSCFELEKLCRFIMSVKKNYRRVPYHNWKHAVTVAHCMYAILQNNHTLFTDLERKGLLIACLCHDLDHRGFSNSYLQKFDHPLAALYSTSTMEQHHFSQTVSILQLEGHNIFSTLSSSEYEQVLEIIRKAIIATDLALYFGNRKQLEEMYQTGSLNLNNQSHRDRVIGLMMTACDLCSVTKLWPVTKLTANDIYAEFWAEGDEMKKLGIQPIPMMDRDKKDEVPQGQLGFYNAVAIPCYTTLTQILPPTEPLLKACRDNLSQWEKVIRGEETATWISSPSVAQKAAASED

The experiment has as its target cAMP and cAMP-inhibited cGMP 3',5'-cyclic phosphodiesterase 10A (Homo sapiens, UniProt Q9Y233). Nature of the experiment: Enzyme Inhibition Assay: To check the inhibition profile, 5 μL of serial diluted compounds were incubated with 5 μL of diluted PDE10 enzyme (BPS Bioscience, San Diego, Calif.) or tissue homogenate in a 384-well polystyrene assay plate (Corning, Corning, N.Y.) for 30 min at room temperature. After incubation, 10 μL of diluted fluorescein labeled cAMP or cGMP substrate were added and incubated for 60 min at room temperature. The reaction was stopped by adding 60 μL of diluted binding reagents and plates were read on an Envision (Perkin Elmer, Waltham, Mass.) for time resolved fluorescence resonance energy transfer. The data were analyzed with GraphPad Prism (La Jolla, Calif.).
As usually defined, the IC50 is the point on the concentration scale where inhibition reaches its midpoint. The compound `COc1ccc(-c2cccnc2Oc2ccc(C(=O)c3nc4ccccc4[nH]3)cc2)cn1` had an IC50 of 1.27 nM.

As for `O=C(c1ccc(Oc2ncccc2-c2ncnc3nc[nH]c23)cc1)c1nc2ccccc2[nH]1`, the concentration for half-maximal inhibition (IC50) is 32.7 nM. The figure for `O=C(c1ccc(Oc2ncccc2[C@@H]2CCCOCC2)cc1)c1nc2ccccc2[nH]1` is 0.0505 nM. Turning to `O=C(c1ccc(Oc2ncccc2[C@@H]2CC[C@H](O)C2)cc1)c1nc2ccccc2[nH]1`, the IC50 was found to be 0.675 nM.
